Values quoted from earlier work in patent US20170367972A1, “Formulations and Methods of Treatment for Treating Nail Fungal Infections” (priority 2016, published 2017).

Columns and labels:
[1] = system: dermatophytes
[2] = system: Candida albicans
[3] = system: dermatophytes; remark: listed apart in the source
[4] = system: Candida spp.
[5] = system: nondermophytic molds

| SMILES | activity against dermatophytes [1] | activity against Candida albicans [2] | effectiveness in dermatophytic infections [3] | activity against Candida spp. [4] | activity against nondermophytic molds [5] |
| --- | --- | --- | --- | --- | --- |
| CN(C/C=C/C#CC(C)(C)C)Cc1cccc2ccccc12 [Terbinafine, terbinafine] | fungicidal activity | only fungistatic activity | – | – | – |
| COC1=CC(=O)C[C@@H](C)[C@]12Oc1c(Cl)c(OC)cc(OC)c1C2=O [griseofulvin] | active in vitro against most dermatophytes | – | effective only for dermatophytic infections | no activity | no activity |
